This assay has as its target T1, Human Farnesoid X Receptor (NR1H4, FXR) (Homo sapiens, UniProt Q96RI1).
T1 sequence (Q96RI1 1-486): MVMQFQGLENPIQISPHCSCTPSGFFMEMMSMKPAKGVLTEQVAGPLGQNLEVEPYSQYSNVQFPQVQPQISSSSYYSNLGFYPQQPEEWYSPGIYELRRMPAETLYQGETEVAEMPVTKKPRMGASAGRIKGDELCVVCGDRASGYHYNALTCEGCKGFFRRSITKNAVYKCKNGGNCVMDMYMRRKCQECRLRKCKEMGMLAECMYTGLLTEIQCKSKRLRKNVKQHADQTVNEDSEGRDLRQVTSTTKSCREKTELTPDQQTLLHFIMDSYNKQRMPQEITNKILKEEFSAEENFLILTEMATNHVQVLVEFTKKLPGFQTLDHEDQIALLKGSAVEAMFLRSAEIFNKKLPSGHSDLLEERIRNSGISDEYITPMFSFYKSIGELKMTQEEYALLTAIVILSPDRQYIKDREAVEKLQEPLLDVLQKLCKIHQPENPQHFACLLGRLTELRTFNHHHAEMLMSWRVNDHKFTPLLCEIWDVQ
As to the kind of experiment: FXR reporter assay, EC50 and efficacy (Indigo Biosciences luciferase reporter cells). The class given is cell-based. The following applies: for Efficacy: maximum point on the dose response curve, GW4064 designated as 100%. How it is done: The compounds of the invention were assayed for agonist activity at the FXR receptor.
Dose-response assays were performed as described in the technical manual of the Human Farnesoid X Receptor (NR1H4, FXR) Reporter Assay System (Indigo Biosciences Human Farnesoid X Receptor (NR1H4, FXR) Reporter Assay System, Technical Manual (version 7.1b), at the World Wide Web (www)indiqobiosciences.com).
FXR reporter cells consisting of an FXR-responsive promoter gene functionally linked to the luciferase gene were defrosted and seeded into a 96-well plate and these cells were immediately dosed with the test compounds at different concentrations (10-0.05 μM) according to the manufacturer's protocol. […] Following this, the induction of luciferase activity, which is the measure of the agonist activity, was quantified by using luminometer (TECAN) according to the manufacturer's protocol.
(In general: Reporter assays use an easily measured gene product as a stand-in for the process of interest.)

`CC[C@@H]1[C@@H]2[C@@H](F)[C@H](O)CC[C@]2(C)C2CC[C@@]3(C)C(CCC3[C@H](C)CCNC(=O)NS(=O)(=O)c3ccc(OC)cc3)C2[C@@H]1O` (stereo partly drawn) [Compound 13, N,N′-(3α,7α-Dihydroxyl-4β-fluoro-6α-ethyl-24-nor-5β-cholan-23-yl)-p-methoxybenzene sulfonyl urea]: the EC50 – broadly, the concentration needed to bring the measured effect to its halfway point – is 48 nM and the Efficacy was found to be 250%.
The like results for `CC[C@H]1[C@@H](O)[C@@H]2[C@H](CC[C@]3(C)[C@@H]([C@H](C)CCC(=O)NS(=O)(=O)c4cccc(C(F)(F)F)c4)CC[C@@H]23)[C@@]2(C)CC[C@@H](O)[C@H](F)[C@@H]12` [Compound 19, N-(3α,7α-Dihydroxyl-4β-fluoro-6α-ethyl-5β-cholan-24-oyl)-3-trifluoromethylphenyl sulfonamide] were, in that order, 50 nM and 136%.
In the case of `CC[C@@H]1[C@@H]2[C@@H](F)[C@H](O)CC[C@]2(C)C2CC[C@@]3(C)C(CCC3[C@H](C)CCNC(=O)NS(=O)(=O)c3ccccc3C)C2[C@@H]1O` (stereo partly drawn) [Compound 5, N,N′-(3α,7α-Dihydroxyl-4β-fluoro-6α-ethyl-24-nor-5β-cholan-23-yl)-o-toluene sulfonyl urea], the EC50 was determined as 28 nM and the Efficacy was 166%.
The like results for `CC[C@@H]1[C@@H]2[C@@H](F)[C@H](O)CC[C@]2(C)C2CC[C@@]3(C)C(CCC3[C@H](C)CCNC(=O)NS(=O)(=O)c3ccccc3C(F)(F)F)C2[C@@H]1O` (stereo partly drawn) [Compound 11, N,N′-(3α,7α-Dihydroxyl-4β-fluoro-6α-ethyl-24-nor-5β-cholan-23-yl)-o-(trifluoromethyl)benzene sulfonyl urea] were, in that order, 123 nM and 104%.
As to `CC[C@@H]1[C@@H]2[C@@H](F)[C@H](O)CC[C@]2(C)C2CC[C@@]3(C)C(CCC3[C@H](C)CCNC(=O)NS(=O)(=O)c3ccc(C(C)(C)C)cc3)C2[C@@H]1O` (stereo partly drawn) [Compound 3, N,N′-(3α,7α-Dihydroxyl-4β-fluoro-6α-ethyl-24-nor-5β-cholan-23-yl)-4-(tert-butyl) benzene sulfonyl urea], the response was half-maximal at 19 nM (EC50) and the Efficacy amounted to 151%.
The like results for `CC[C@H]1[C@@H](O)[C@@H]2[C@H](CC[C@]3(C)[C@@H]([C@H](C)CCC(=O)NS(=O)(=O)c4ccc(F)cc4)CC[C@@H]23)[C@@]2(C)CC[C@@H](O)[C@H](F)[C@@H]12` [Compound 15, N-(3α,7α-Dihydroxyl-4β-fluoro-6α-ethyl-5β-cholan-24-oyl)-p-fluorobenzene sulfonamide] were, in that order, 38 nM and 98%.
The like results for `CC[C@H]1[C@@H](O)[C@@H]2[C@H](CC[C@]3(C)[C@@H]([C@H](C)CCC(=O)NS(=O)(=O)c4ccccc4F)CC[C@@H]23)[C@@]2(C)CC[C@@H](O)[C@H](F)[C@@H]12` [Compound 17, N-(3α,7α-Dihydroxyl-4β-fluoro-6α-ethyl-5β-cholan-24-oyl)-o-fluorophenyl sulfonamide] were, in that order, 34 nM and 121%.
On to `CC[C@H]1[C@@H](O)[C@@H]2[C@H](CC[C@]3(C)[C@@H]([C@H](C)CCC(=O)NS(=O)(=O)C4CC4)CC[C@@H]23)[C@@]2(C)CC[C@@H](O)[C@H](F)[C@@H]12` [Comparative compound B, N-(3α,7α-Dihydroxyl-4β-fluoro-6α-ethyl-5β-cholan-24-oyl)-cyclopropyl sulfonamide, reference compound], for which the EC50 came to 158 nM and the Efficacy was determined as 132%.
The like results for `CC[C@@H]1[C@@H]2[C@@H](F)[C@H](O)CC[C@]2(C)C2CC[C@@]3(C)C(CCC3[C@H](C)CCNC(=O)NS(=O)(=O)c3cccc(F)c3)C2[C@@H]1O` (stereo partly drawn) [Compound 7, N,N′-(3α,7α-Dihydroxyl-4β-fluoro-6α-ethyl-24-nor-5β-cholan-23-yl)-m-fluorobenzene sulfonyl urea] were, in that order, 38 nM and 131%.
In turn, `CC[C@@H]1[C@@H]2[C@@H](F)[C@H](O)CC[C@]2(C)C2CC[C@@]3(C)C(CCC3[C@H](C)CCNC(=O)NS(=O)(=O)c3ccc(C(F)(F)F)cc3)C2[C@@H]1O` (stereo partly drawn) [Compound 9, N,N′-(3α,7α-Dihydroxyl-4β-fluoro-6α-ethyl-24-nor-5β-cholan-23-yl)-p-(trifluoromethyl)benzene sulfonyl urea] had an EC50 of 50 nM and an Efficacy of 158%.
The like results for `CC[C@@H]1[C@@H]2[C@@H](F)[C@H](O)CC[C@]2(C)C2CC[C@@]3(C)C(CCC3[C@H](C)CCNC(=O)NS(=O)(=O)c3ccc(OC(F)(F)F)cc3)C2[C@@H]1O` (stereo partly drawn) [Compound 12, N,N′-(3α,7α-Dihydroxyl-4β-fluoro-6α-ethyl-24-nor-5β-cholan-23-yl)-4-(trifluoromethoxy)benzene sulfonyl urea] were, in that order, 27 nM and 176%.
For `CC[C@H]1[C@@H](O)C2C3CCC([C@H](C)CCNC(=O)NS(=O)(=O)c4ccccc4)[C@@]3(C)CCC2[C@@]2(C)CC[C@@H](O)C[C@@H]12` (stereo partly drawn) [Comparative compound A, N,N′-(3α,7α-Dihydroxyl-6α-ethyl-24-nor-5β-cholan-23-yl)-benzene sulfonyl urea, reference compound], a half-maximal effect (EC50) was put at 32 nM and the Efficacy stood at 147%.
In turn, `CC[C@@H]1[C@@H]2[C@@H](F)[C@H](O)CC[C@]2(C)C2CC[C@@]3(C)C(CCC3[C@H](C)CCNC(=O)NS(=O)(=O)c3ccc(F)cc3)C2[C@@H]1O` (stereo partly drawn) [Compound 6, N,N′-(3α,7α-Dihydroxyl-4β-fluoro-6α-ethyl-24-nor-5β-cholan-23-yl)-p-fluorobenzene sulfonyl urea] registered an EC50 of 32 nM and an Efficacy of 187%.
The compound `CC[C@@H]1[C@@H]2[C@@H](F)[C@H](O)CC[C@]2(C)C2CC[C@@]3(C)C(CCC3[C@H](C)CCNC(=O)NS(=O)(=O)c3cccc(C)c3)C2[C@@H]1O` (stereo partly drawn) [Compound 4, N,N′-(3α,7α-Dihydroxyl-4β-fluoro-6α-ethyl-24-nor-5β-cholan-23-yl)-m-toluene sulfonyl urea] registered an EC50 of 23 nM and an Efficacy of 148%.
The like results for `CC[C@H]1[C@@H](O)[C@@H]2[C@H](CC[C@]3(C)[C@@H]([C@H](C)CCC(=O)NS(=O)(=O)c4cccc(F)c4)CC[C@@H]23)[C@@]2(C)CC[C@@H](O)[C@H](F)[C@@H]12` [Compound 16, N-(3α,7α-Dihydroxyl-4β-fluoro-6α-ethyl-5β-cholan-24-oyl)-m-fluorophenyl sulfonamide] were, in that order, 46 nM and 143%.
`CC[C@H]1[C@@H](O)[C@@H]2[C@H](CC[C@]3(C)[C@@H]([C@H](C)CCC(=O)NS(C)(=O)=O)CC[C@@H]23)[C@@]2(C)CC[C@@H](O)[C@H](F)[C@@H]12` [Comparative compound C, N-(3α,7α-Dihydroxyl-4β-fluoro-6α-ethyl-5β-cholan-24-oyl)-methyl sulfonamide, reference compound]: the EC50 was 192 nM and the Efficacy came to 130%.
The like results for `CC[C@@H]1[C@@H]2[C@@H](F)[C@H](O)CC[C@]2(C)C2CC[C@@]3(C)C(CCC3[C@H](C)CCNC(=O)NS(=O)(=O)c3ccccc3F)C2[C@@H]1O` (stereo partly drawn) [Compound 8, N,N′-(3α,7α-Dihydroxyl-4β-fluoro-6α-ethyl-24-nor-5β-cholan-23-yl)-o-fluorobenzene sulfonyl urea] were, in that order, 43 nM and 159%.
Turning to `CC[C@@H]1[C@@H]2[C@@H](F)[C@H](O)CC[C@]2(C)C2CC[C@@]3(C)C(CCC3[C@H](C)CCNC(=O)NS(=O)(=O)c3ccc(C)cc3)C2[C@@H]1O` (stereo partly drawn) [Compound 1, N,N′-(3α,7α-Dihydroxyl-4β-fluoro-6α-ethyl-24-nor-5β-cholan-23-yl)-p-toluene sulfonyl urea], the EC50 turned out to be 18 nM and the Efficacy is 193%.

(Values after patent US11517577B2, “Fluorinated bile acid derivatives” (NZP UK LIMITED, priority 2018, dated 2022).)
